Results reported in the NIST ThermoML archive (doi:10.1021/je200811n).
Numbers after ± are expanded uncertainties.

Details: Liquid, Hot wire method

F/C=C/C(F)(F)F [trans-1,3,3,3-tetrafluoropropene]
Details	thermal conductivity [W/m/K]
203.15 K	0.1101 ± 0.00064
213.15 K	0.1064 ± 0.00063
223.15 K	0.1024 ± 0.0006
233.15 K	0.0984 ± 0.0006

Details	thermal conductivity [W/m/K]
203.18 K, 711 kPa	0.1106 ± 0.0012
203.18 K, 5522 kPa	0.1124 ± 0.0012
203.18 K, 10459 kPa	0.114 ± 0.0012
203.18 K, 15332 kPa	0.1155 ± 0.0013
203.18 K, 20782 kPa	0.1173 ± 0.0013
203.28 K, 739 kPa	0.1103 ± 0.0012
203.28 K, 5531 kPa	0.112 ± 0.0012
203.28 K, 10473 kPa	0.1137 ± 0.0012
203.29 K, 15354 kPa	0.1152 ± 0.0013
203.29 K, 20780 kPa	0.1169 ± 0.0013
203.54 K, 5526 kPa	0.1122 ± 0.0012
203.54 K, 10469 kPa	0.1137 ± 0.0012
203.55 K, 747 kPa	0.1104 ± 0.0012
203.55 K, 15371 kPa	0.1153 ± 0.0013
203.56 K, 20781 kPa	0.1169 ± 0.0013
203.67 K, 5527 kPa	0.1118 ± 0.0012
203.67 K, 10483 kPa	0.1135 ± 0.0012
203.67 K, 15392 kPa	0.1149 ± 0.0012
203.67 K, 20820 kPa	0.1167 ± 0.0013
203.68 K, 729 kPa	0.11 ± 0.0012
203.94 K, 20822 kPa	0.1168 ± 0.0013
203.95 K, 15357 kPa	0.1149 ± 0.0012
203.96 K, 5536 kPa	0.1119 ± 0.0012
203.96 K, 10470 kPa	0.1136 ± 0.0012
203.97 K, 733 kPa	0.1102 ± 0.0012
204.1 K, 15343 kPa	0.1146 ± 0.0012
204.1 K, 20832 kPa	0.1164 ± 0.0013
204.11 K, 5538 kPa	0.1115 ± 0.0012
204.11 K, 10474 kPa	0.1133 ± 0.0012
204.12 K, 727 kPa	0.1098 ± 0.0012
204.38 K, 20839 kPa	0.1166 ± 0.0013
204.39 K, 15379 kPa	0.1146 ± 0.0012
204.4 K, 10465 kPa	0.1133 ± 0.0012
204.41 K, 5532 kPa	0.1118 ± 0.0012
204.42 K, 727 kPa	0.11 ± 0.0012
204.56 K, 15381 kPa	0.1145 ± 0.0012
204.56 K, 20849 kPa	0.1163 ± 0.0013
204.57 K, 10473 kPa	0.113 ± 0.0012
204.59 K, 5544 kPa	0.1114 ± 0.0012
204.62 K, 736 kPa	0.1094 ± 0.0012
204.85 K, 20860 kPa	0.1164 ± 0.0013
204.87 K, 15409 kPa	0.1147 ± 0.0012
204.88 K, 10437 kPa	0.1131 ± 0.0012
204.9 K, 5524 kPa	0.1115 ± 0.0012
204.92 K, 744 kPa	0.1095 ± 0.0012
205.05 K, 20874 kPa	0.116 ± 0.0013
205.06 K, 15407 kPa	0.1143 ± 0.0012
205.09 K, 10456 kPa	0.1127 ± 0.0012
205.1 K, 5515 kPa	0.1111 ± 0.0012
205.13 K, 719 kPa	0.1088 ± 0.0012
221.66 K, 461 kPa	0.1031 ± 0.0011
221.67 K, 5469 kPa	0.1047 ± 0.0011
221.74 K, 21449 kPa	0.1111 ± 0.0012
221.76 K, 463 kPa	0.1036 ± 0.0011
221.76 K, 5431 kPa	0.1048 ± 0.0011
221.76 K, 10410 kPa	0.1068 ± 0.0012
221.76 K, 15721 kPa	0.1089 ± 0.0012
221.84 K, 21448 kPa	0.1108 ± 0.0012
221.86 K, 15726 kPa	0.1087 ± 0.0012
221.88 K, 10573 kPa	0.1069 ± 0.0012
222.06 K, 464 kPa	0.1022 ± 0.0011
222.06 K, 10416 kPa	0.1071 ± 0.0012
222.08 K, 5404 kPa	0.1049 ± 0.0011
222.12 K, 21441 kPa	0.1109 ± 0.0012
222.15 K, 15723 kPa	0.1088 ± 0.0012
222.18 K, 10370 kPa	0.1067 ± 0.0012
222.19 K, 465 kPa	0.103 ± 0.0011
222.19 K, 5436 kPa	0.1046 ± 0.0011
222.24 K, 21442 kPa	0.1106 ± 0.0012
222.27 K, 15726 kPa	0.1085 ± 0.0012
222.3 K, 10660 kPa	0.1066 ± 0.0011
222.49 K, 10407 kPa	0.1072 ± 0.0012
222.5 K, 470 kPa	0.1023 ± 0.0011
222.5 K, 5467 kPa	0.105 ± 0.0011
222.5 K, 10293 kPa	0.1066 ± 0.0011
222.54 K, 21423 kPa	0.1106 ± 0.0012
222.57 K, 15731 kPa	0.1085 ± 0.0012
222.64 K, 10411 kPa	0.1065 ± 0.0011
222.65 K, 468 kPa	0.1027 ± 0.0011
222.65 K, 5467 kPa	0.1046 ± 0.0011
222.68 K, 21432 kPa	0.1103 ± 0.0012
222.72 K, 15730 kPa	0.1082 ± 0.0012
222.97 K, 10413 kPa	0.1065 ± 0.0012
222.99 K, 5478 kPa	0.1038 ± 0.0011
223 K, 470 kPa	0.1026 ± 0.0011
223 K, 21446 kPa	0.1104 ± 0.0012
223.04 K, 15727 kPa	0.1083 ± 0.0012
223.15 K, 10394 kPa	0.1061 ± 0.0012
223.16 K, 5476 kPa	0.1042 ± 0.0011
223.18 K, 469 kPa	0.1021 ± 0.0011
223.18 K, 21443 kPa	0.11 ± 0.0012
223.22 K, 15728 kPa	0.108 ± 0.0012
223.49 K, 10439 kPa	0.1055 ± 0.0011
223.5 K, 21421 kPa	0.1101 ± 0.0012
223.52 K, 5475 kPa	0.105 ± 0.0011
223.55 K, 15715 kPa	0.1081 ± 0.0012
223.7 K, 10408 kPa	0.1058 ± 0.0011
223.71 K, 21432 kPa	0.1098 ± 0.0012
223.73 K, 5485 kPa	0.104 ± 0.0011
223.75 K, 474 kPa	0.1022 ± 0.0011
223.76 K, 15729 kPa	0.1077 ± 0.0012
241.49 K, 10379 kPa	0.09991 ± 0.0011
241.51 K, 15379 kPa	0.1018 ± 0.0011
241.52 K, 20702 kPa	0.1042 ± 0.0011
241.53 K, 5318 kPa	0.09771 ± 0.0011
241.56 K, 614 kPa	0.09561 ± 0.001
241.59 K, 10369 kPa	0.0996 ± 0.0011
241.6 K, 15368 kPa	0.1014 ± 0.0011
241.61 K, 20709 kPa	0.1038 ± 0.0011
241.62 K, 5325 kPa	0.09743 ± 0.0011
